Active and inactive are the calls of the source. The calls are words filed in the database; no cut-off is given here.
Experiments:
RAW264.7 [1] = experiment: Anti-inflammatory activity against mouse RAW264.7 cells assessed as inhibition of LPS-induced NO production at 60 uM pretreated for 1 hr followed by incubation with LPS and measured after 24 hrs by Griess reagent based analysis; format: functional, cell-based; details: time 25.0 hrs
RAW264.7 [2] = experiment: Cytotoxicity against mouse RAW264.7 cells assessed as reduction in cell viability at 80 uM incubated for 24 hrs by MTT assay; format: toxicity, cell-based; details: raw264.7, 24 h
RAW264.7 [3] = experiment: Downregulation of NF-kappaB expression in LPS-activated mouse RAW264.7 cells at 7.5 to 30 uM pretreated for 1 hr followed by incubation with LPS for 24 hrs by western blot analysis; format: functional, cell-based; details: dose 7.5-30 µM, time 25.0 hrs
RAW264.7 [4] = experiment: Anti-inflammatory activity against mouse RAW264.7 cells assessed as inhibition of LPS-induced ROS production at 10 to 40 uM pretreated for 1 hr followed by incubation with LPS for 24 hrs by DCFH-DA staining based fluorescence microscopy; format: functional, cell-based; details: dose 10-40 µM, time 25.0 hrs
RAW264.7 [5] = experiment: Anti-inflammatory activity against LPS-activated mouse RAW264.7 cells assessed as reduction of IL-6 gene expression at 7.5 to 30 uM pretreated for 1 hr followed by incubation with LPS for 24 hrs by qRT-PCR analysis; format: functional, cell-based; details: dose 7.5-30 µM, time 25.0 hrs
RAW264.7 [6] = experiment: Downregulation of phospho-IKKalpha/beta expression in LPS-activated mouse RAW264.7 cells at 7.5 to 30 uM pretreated for 1 hr followed by incubation with LPS for 24 hrs by western blot analysis; format: functional, cell-based; details: dose 7.5-30 µM, time 25.0 hrs
RAW264.7 [7] = experiment: Anti-inflammatory activity against LPS-activated mouse RAW264.7 cells assessed as reduction of TNF-alpha gene expression at 7.5 to 30 uM pretreated for 1 hr followed by incubation with LPS for 24 hrs by qRT-PCR analysis; format: functional, cell-based; details: dose 7.5-30 µM, time 25.0 hrs
RAW264.7 [8] = experiment: Anti-inflammatory activity against mouse RAW264.7 cells assessed as inhibition of LPS-induced ROS production at 15 to 60 uM pretreated for 1 hr followed by incubation with LPS for 24 hrs by DCFH-DA staining based flow cytometry; format: functional, cell-based; details: dose 15-60 µM, time 25.0 hrs
RAW264.7 [9] = experiment: Anti-inflammatory activity against mouse RAW264.7 cells assessed as inhibition of LPS-induced NO production pretreated for 1 hr followed by incubation with LPS and measured after 24 hrs by Griess reagent based analysis; format: functional, cell-based
RAW264.7 [10] = experiment: Anti-inflammatory activity against LPS-activated mouse RAW264.7 cells assessed as reduction of IL-1 beta gene expression at 7.5 to 30 uM pretreated for 1 hr followed by incubation with LPS for 24 hrs by qRT-PCR analysis; format: functional, cell-based; details: dose 7.5-30 µM, time 25.0 hrs
RAW264.7 [11] = experiment: Anti-inflammatory activity against LPS-activated mouse RAW264.7 cells assessed as reduction of NFkappaB p52 gene expression at 7.5 to 30 uM pretreated for 1 hr followed by incubation with LPS for 24 hrs by qRT-PCR analysis; format: functional, cell-based; details: dose 7.5-30 µM, time 25.0 hrs
RAW264.7 [12] = experiment: Inhibition of NF-kappaB in mouse RAW264.7 cells assessed as inhibition of LPS-induced NF-kappaB p65 nuclear translocation at 15 to 60 uM pretreated for 1 hr followed by incubation with LPS for 24 hrs by immunofluorescence analysis; format: cell-based; details: dose 15-60 µM, time 25.0 hrs
Danio rerio = species on record: Danio rerio; experiment: Anti-inflammatory activity against Zebra fish embryo assessed as inhibition of LPS-induced ROS production at 5 uM pretreated with LPS followed by incubation with drug by fluorescence microscopy; format: functional, organism-based
SW-620 = experiment: Cytotoxicity against human SW-620 cells assessed as reduction in metabolically active cells by MTT assay; format: functional, cell-based

Row | SMILES | Activity (RAW264.7 [1]) | Activity (RAW264.7 [2]) | further results
1 | COc1cc(O)c2c(c1O)[C@H](OC)[C@H]1C[C@](C)(O)[C@H](O)[C@@H](O)[C@@H]1C2=O | Active |  | 
2 | COc1cc(O)c2c(c1N)C(=O)C1=C(C[C@@H](O)[C@@](C)(O)C1)C2=O | Active |  | 
3 | COc1cc(O)c2c(c1O)C(O)C1C[C@](C)(O)[C@H](O)CC1C2=O (stereo partly drawn) |  | Toxic | 
4 | COc1cc(O)c2c(c1O)[C@@H](OC)[C@H]1C[C@](C)(O)[C@H](O)[C@@H](O)[C@@H]1C2=O | Active |  | 
5 | COc1cc(O)c2c(c1O)[C@H](O)[C@H]1C[C@](C)(O)[C@H](O)C[C@H]1C2=O | Active |  | 
6 | COc1cc(O)c2c(c1O)C(=O)C1=C(C[C@@H](O)[C@@](C)(O)C1)C2=O |  | Toxic | 
7 | COc1cc(O)c2c(c1O)[C@H](OC)[C@H]1C[C@](C)(O)[C@H](O)C[C@@H]1C2=O | Active |  | 
8 | COc1cc(O)c2c(c1O)[C@H](OC)[C@H]1C[C@](C)(O)[C@H](O)[C@@H](O)[C@H]1C2=O |  | Toxic | 
9 | COc1cc(O)c2c(c1O)[C@H]1O[C@]3(C)C[C@H]1[C@@H](C[C@@H]3O)C2=O |  | Toxic | 
10 | COc1cc(O)c2c(c1O)[C@H](O)[C@H]1C[C@](C)(O)[C@H](O)[C@@H](O)[C@H]1C2=O | Active |  | inhibition (RAW264.7 [3]): Active; Activity (RAW264.7 [4]): Active; Activity (RAW264.7 [5]): Active; inhibition (RAW264.7 [6]): Active; Activity (RAW264.7 [7]): Active; Activity (RAW264.7 [8]): Active; IC50 (RAW264.7 [9]): 7.5 µM; Activity (RAW264.7 [10]): Active; Activity (RAW264.7 [11]): Active; inhibition (RAW264.7 [12]): Active; Activity (Danio rerio): Active
11 | COc1cc(O)c2c(c1O)C(=O)[C@H]1C[C@](C)(O)[C@H](O)[C@@H](O)[C@@H]1C2=O | Active |  | 
12 | COC1=CC(=O)c2c(cc3c(c2O)[C@H](O)[C@@H](O)[C@@](C)(O)C3)C1=O |  | Toxic | IC50 (SW-620): 13.7 µM
13 | COc1cc(O)c2c(c1O)[C@H](O)[C@H]1C[C@](C)(O)[C@H](O)[C@@H](O)[C@@H]1C2=O [9ALPHA-HYDROXYHALOROSELLINIA A] |  | Toxic | 
14 | COc1cc(O)c2c(c1O)[C@H](O)[C@H]1C[C@](C)(O)C[C@@H](O)[C@@H]1C2=O |  | Toxic | 
15 | COc1cc(O)c2c(c1O)[C@@H](OC)[C@H]1C[C@](C)(O)[C@H](O)C[C@@H]1C2=O | Active |  | 
16 | C[C@]1(O)C[C@@]2(O)[C@H](C[C@H]1O)C(=O)c1c(O)ccc(O)c1[C@@H]2O | Active |  | 
